Results taken from the NIST ThermoML archive (doi:10.1021/je050367p).
“And” between values parts separate entries of the source, which are not always exact repeats. Equal values may be shown once. Numbers after ± are expanded uncertainties.

Columns and labels:
[1] = Liquid; for viscosity: Capillary tube (Ostwald / Ubbelohde) method
[2] = refractive index (Na D-line) (dimensionless); settings: 101.33 kPa, Liquid, Standard Abbe refractometry
[3] = refractive index (Na D-line) (dimensionless); xn = mol fraction of the nth substance listed; settings: 100.8 kPa, Liquid, Standard Abbe refractometry
[4] = xn = mol fraction of the nth substance listed; settings: Liquid; for viscosity: Capillary tube (Ostwald / Ubbelohde) method

| SMILES | mass density ([1]; 288.15 K, 100.8 kPa) [kg/m3] | viscosity ([1]; 288.15 K, 100.8 kPa) [mPa·s] | mass density ([1]; 298.15 K, 100.8 kPa) [kg/m3] | viscosity ([1]; 298.15 K, 100.8 kPa) [mPa·s] | mass density ([1]; 308.15 K, 100.8 kPa) | viscosity ([1]; 308.15 K, 100.8 kPa) [mPa·s] | refractive index ([2]; 288.15 K) | refractive index ([2]; 298.15 K) | refractive index ([2]; 308.15 K) | refractive index ([3]; 288.15 K, x2 = 0) | refractive index ([3]; 298.15 K, x2 = 0) | refractive index ([3]; 308.15 K, x2 = 0) | mass density ([1]; 288.15 K, 100.5 kPa) [kg/m3] | viscosity ([1]; 288.15 K, 100.5 kPa) [mPa·s] | mass density ([1]; 298.15 K, 100.5 kPa) [kg/m3] | viscosity ([1]; 298.15 K, 100.5 kPa) [mPa·s] | mass density ([1]; 308.15 K, 100.5 kPa) [kg/m3] | viscosity ([1]; 308.15 K, 100.5 kPa) [mPa·s] | also measured |
| --- | --- | --- | --- | --- | --- | --- | --- | --- | --- | --- | --- | --- | --- | --- | --- | --- | --- | --- | --- |
| CC(C)CC(C)(C)C [2,2,4-trimethylpentane] | 695.95 ± 0.31 | 0.537 ± 0.007 | 687.74 ± 0.31 | 0.48 ± 0.007 | 679.43 ± 0.32 kg/m3 and 679.41 ± 0.32 kg/m3 | 0.432 ± 0.007 | 1.39404 ± 0.00031 | 1.389 ± 0.00031 | 1.38395 ± 0.00031 |  |  |  |  |  |  |  |  |  |  |
| CC(C)CC(C)(C)C [2,2,4-trimethylpentane] + CC(C)OC(C)C |  |  |  |  |  |  |  |  |  | 1.39404 ± 0.00031 | 1.389 ± 0.00031 | 1.38395 ± 0.00031 |  |  |  |  |  |  | viscosity ([4]; 288.15 K, 100.8 kPa, x2 = 0): 0.537 ± 0.007 mPa·s; mass density ([4]; 288.15 K, 100.8 kPa, x2 = 0): 695.95 ± 0.31 kg/m3; viscosity ([4]; 298.15 K, 100.8 kPa, x2 = 0): 0.48 ± 0.007 mPa·s; mass density ([4]; 298.15 K, 100.8 kPa, x2 = 0): 687.74 ± 0.31 kg/m3; viscosity ([4]; 308.15 K, 100.8 kPa, x2 = 0): 0.432 ± 0.007 mPa·s; mass density ([4]; 308.15 K, 100.8 kPa, x2 = 0): 679.43 ± 0.32 kg/m3 |
| CC(C)OC(C)C [diisopropyl ether] | 729.09 ± 0.3 | 0.348 ± 0.007 | 718.7 ± 0.3 | 0.313 ± 0.006 | 708.12 ± 0.31 kg/m3 | 0.283 ± 0.006 | 1.37093 ± 0.00032 | 1.36524 ± 0.00032 | 1.35944 ± 0.00032 |  |  |  | 729.09 ± 0.3 | 0.348 ± 0.007 | 718.7 ± 0.3 | 0.313 ± 0.006 | 708.12 ± 0.31 | 0.283 ± 0.006 |  |
| CCO [ethanol] | 793.74 ± 0.23 | 1.309 ± 0.011 | 785.17 ± 0.23 | 1.084 ± 0.009 | 776.49 ± 0.24 kg/m3 | 0.905 ± 0.008 | 1.36342 ± 0.00031 | 1.35924 ± 0.00031 | 1.35502 ± 0.00031 |  |  |  | 793.74 ± 0.23 | 1.309 ± 0.009 | 785.17 ± 0.23 | 1.084 ± 0.009 | 776.49 ± 0.24 | 0.905 ± 0.008 |  |
| CCO [ethanol] + CC(C)CC(C)(C)C |  |  |  |  |  |  |  |  |  |  |  |  |  |  |  |  |  |  | refractive index ([3]; 288.15 K, x1 = 1): 1.36342 ± 0.00031; refractive index ([3]; 298.15 K, x1 = 1): 1.35924 ± 0.00031; refractive index ([3]; 308.15 K, x1 = 1): 1.35502 ± 0.00031; viscosity ([4]; 288.15 K, 100.8 kPa, x1 = 1): 1.309 ± 0.011 mPa·s; mass density ([4]; 288.15 K, 100.8 kPa, x1 = 1): 793.74 ± 0.23 kg/m3; viscosity ([4]; 298.15 K, 100.8 kPa, x1 = 1): 1.084 ± 0.009 mPa·s; mass density ([4]; 298.15 K, 100.8 kPa, x1 = 1): 785.17 ± 0.23 kg/m3; viscosity ([4]; 308.15 K, 100.8 kPa, x1 = 1): 0.905 ± 0.008 mPa·s; mass density ([4]; 308.15 K, 100.8 kPa, x1 = 1): 776.49 ± 0.24 kg/m3 |
| CCO [ethanol] + CC(C)OC(C)C |  |  |  |  |  |  |  |  |  | 1.36342 ± 0.00031 | 1.35924 ± 0.00031 | 1.35502 ± 0.00031 |  |  |  |  |  |  | viscosity ([4]; 288.15 K, 100.5 kPa, x2 = 0): 1.309 ± 0.009 mPa·s; mass density ([4]; 288.15 K, 100.5 kPa, x2 = 0): 793.74 ± 0.23 kg/m3; viscosity ([4]; 298.15 K, 100.5 kPa, x2 = 0): 1.084 ± 0.009 mPa·s; mass density ([4]; 298.15 K, 100.5 kPa, x2 = 0): 785.17 ± 0.23 kg/m3; viscosity ([4]; 308.15 K, 100.5 kPa, x2 = 0): 0.905 ± 0.008 mPa·s; mass density ([4]; 308.15 K, 100.5 kPa, x2 = 0): 776.49 ± 0.24 kg/m3 |
